Source: ChEMBL document CHEMBL1201862, “PubChem BioAssay data set” (2004)
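Values below derive from 48-hour exposures of cells grown in 96-well plates, with endpoints linearly interpolated between the two concentrations bracketing the appropriate inhibition level. At the GI50, growth is halved.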 Calls of active or inactive are those of the source. Cut-off read from the data, not from the text of the source: active = GI50 up to about 1.1 µM and inactive = higher.

Columns and labels:
Assay in all cases: NCI tumour cell line growth inhibition, 48 h
[1] = test system: 786-0
[2] = test system: A498
[3] = test system: A549
[4] = test system: ACHN
[5] = test system: BT-549
[6] = test system: CAKI-1
[7] = test system: CCRF-CEM
[8] = test system: COLO 205
[9] = test system: DU-145
[10] = test system: EKVX
[11] = test system: HCC 2998
[12] = test system: HCT-116
[13] = test system: HCT-15
[14] = test system: HL-60
[15] = test system: HOP-62
[16] = test system: HT-29
[17] = test system: Hs-578T
[18] = test system: IGROV-1
[19] = test system: K562
[20] = test system: KM12
[21] = test system: LOX IMVI
[22] = test system: M14
[23] = test system: MCF7
[24] = test system: MDA-MB-231
[25] = test system: MDA-N
[26] = test system: MOLT-4
[27] = test system: Malme-3M
[28] = test system: NCI-H226
[29] = test system: NCI-H23
[30] = test system: NCI-H460
[31] = test system: NCI/ADR-RES
[32] = test system: OVCAR-3
[33] = test system: OVCAR-4
[34] = test system: OVCAR-5
[35] = test system: OVCAR-8
[36] = test system: PC-3
[37] = test system: RXF 393
[38] = test system: SF-268
[39] = test system: SF-295
[40] = test system: SF-539
[41] = test system: SK-MEL-28
[42] = test system: SK-MEL-5
[43] = test system: SK-OV-3
[44] = test system: SN12C
[45] = test system: SNB-19
[46] = test system: SNB-75
[47] = test system: SR
[48] = test system: SW-620
[49] = test system: T47D
[50] = test system: TK-10
[51] = test system: U-251
[52] = test system: UACC-257
[53] = test system: UACC-62
[54] = test system: UO-31
[55] = test system: NCI-H522
[56] = test system: SK-MEL-2
[57] = test system: HOP-92
[58] = test system: MDA-MB-435

## N#CS/C(Cl)=C(/C(Cl)=C(Cl)Cl)[N+](=O)[O-]
[1]
  GI50: 28.2 µM (inactive)
[2]
  GI50: 79.6 µM (inactive)
[3]
  GI50: > 100 µM (inactive)
[4]
  GI50: 31.3 µM (inactive)
[5]
  GI50: 36.8 µM (inactive)
[6]
  GI50: 35.4 µM (inactive)
[7]
  GI50: 33 µM (inactive)
[8]
  GI50: 30.5 µM (inactive)
[9]
  GI50: > 100 µM (inactive)
[10]
  GI50: > 100 µM (inactive)
[11]
  GI50: 39.8 µM (inactive)
[12]
  GI50: 25.4 µM (inactive)
[13]
  GI50: 20.9 µM
[14]
  GI50: 29.1 µM (inactive)
[15]
  GI50: > 100 µM (inactive)
[16]
  GI50: 34.5 µM (inactive)
[17]
  GI50: 16.6 µM (inactive)
[18]
  GI50: 37.5 µM (inactive)
[19]
  GI50: 40.7 µM (inactive)
[20]
  GI50: 47.6 µM (inactive)
[21]
  GI50: 19.6 µM (inactive)
[22]
  GI50: 34.4 µM (inactive)
[23]
  GI50: 29.9 µM (inactive)
[24]
  GI50: 52.5 µM (inactive)
[25]
  GI50: 34.6 µM (inactive)
[26]
  GI50: 36.3 µM (inactive)
[27]
  GI50: 20.7 µM (inactive)
[28]
  GI50: > 100 µM (inactive)
[29]
  GI50: 33.3 µM (inactive)
[30]
  GI50: 42.8 µM (inactive)
[31]
  GI50: 28.4 µM (inactive)
[32]
  GI50: 21.9 µM (inactive)
[33]
  GI50: 48.3 µM (inactive)
[34]
  GI50: > 100 µM (inactive)
[35]
  GI50: 34.4 µM (inactive)
[36]
  GI50: 35.2 µM (inactive)
[37]
  GI50: 47.3 µM (inactive)
[38]
  GI50: 38 µM (inactive)
[39]
  GI50: 53.2 µM (inactive)
[40]
  GI50: 32.9 µM (inactive)
[41]
  GI50: 29.4 µM (inactive)
[42]
  GI50: 49.7 µM (inactive)
[43]
  GI50: > 100 µM (inactive)
[44]
  GI50: 36.9 µM (inactive)
[45]
  GI50: 1.89 µM (inactive)
[46]
  GI50: 32.3 µM (inactive)
[47]
  GI50: 24.7 µM (inactive)
[48]
  GI50: 29.7 µM (inactive)
[49]
  GI50: 37.2 µM (inactive)
[50]
  GI50: > 100 µM (inactive)
[51]
  GI50: 35.8 µM (inactive)
[52]
  GI50: 36.6 µM (inactive)
[53]
  GI50: 47.2 µM (inactive)
[54]
  GI50: 24.5 µM (inactive)

## CC1(C)CC(=O)C(Cc2ccccc2)(Cc2ccccc2)C(=O)C1
[1]
  GI50: > 100 µM (inactive)
[3]
  GI50: > 100 µM (inactive)
[4]
  GI50: > 100 µM (inactive)
[5]
  GI50: > 100 µM (inactive)
[6]
  GI50: > 100 µM (inactive)
[7]
  GI50: > 100 µM (inactive)
[8]
  GI50: > 100 µM (inactive)
[9]
  GI50: > 100 µM (inactive)
[10]
  GI50: > 100 µM (inactive)
[11]
  GI50: > 100 µM (inactive)
[12]
  GI50: > 100 µM (inactive)
[13]
  GI50: > 100 µM
[14]
  GI50: > 100 µM (inactive)
[15]
  GI50: > 100 µM (inactive)
[16]
  GI50: > 100 µM (inactive)
[17]
  GI50: 29.2 µM (inactive)
[18]
  GI50: > 100 µM (inactive)
[19]
  GI50: > 100 µM (inactive)
[20]
  GI50: > 100 µM (inactive)
[21]
  GI50: > 100 µM (inactive)
[22]
  GI50: > 100 µM (inactive)
[23]
  GI50: > 100 µM (inactive)
[24]
  GI50: > 100 µM (inactive)
[25]
  GI50: > 100 µM (inactive)
[26]
  GI50: > 100 µM (inactive)
[27]
  GI50: > 100 µM (inactive)
[28]
  GI50: > 100 µM (inactive)
[29]
  GI50: > 100 µM (inactive)
[30]
  GI50: > 100 µM (inactive)
[55]
  GI50: > 100 µM (inactive)
[31]
  GI50: > 100 µM (inactive)
[33]
  GI50: > 100 µM (inactive)
[34]
  GI50: > 100 µM (inactive)
[35]
  GI50: > 100 µM (inactive)
[36]
  GI50: > 100 µM (inactive)
[37]
  GI50: 33.8 µM (inactive)
[38]
  GI50: > 100 µM (inactive)
[39]
  GI50: > 100 µM (inactive)
[40]
  GI50: > 100 µM (inactive)
[41]
  GI50: > 100 µM (inactive)
[56]
  GI50: > 100 µM (inactive)
[42]
  GI50: > 100 µM (inactive)
[43]
  GI50: > 100 µM (inactive)
[44]
  GI50: > 100 µM (inactive)
[45]
  GI50: > 100 µM (inactive)
[46]
  GI50: 39.8 µM (inactive)
[47]
  GI50: > 100 µM (inactive)
[48]
  GI50: > 100 µM (inactive)
[49]
  GI50: > 100 µM (inactive)
[50]
  GI50: > 100 µM (inactive)
[51]
  GI50: > 100 µM (inactive)
[52]
  GI50: > 100 µM (inactive)
[53]
  GI50: > 100 µM (inactive)
[54]
  GI50: > 100 µM (inactive)

## COC(=O)[C@H]1COC(=O)N1
[1]
  GI50: > 100 µM (inactive)
[2]
  GI50: > 100 µM (inactive)
[3]
  GI50: > 100 µM (inactive)
[4]
  GI50: > 100 µM (inactive)
[5]
  GI50: > 100 µM (inactive)
[6]
  GI50: > 100 µM (inactive)
[7]
  GI50: > 100 µM (inactive)
[8]
  GI50: > 100 µM (inactive)
[9]
  GI50: > 100 µM (inactive)
[10]
  GI50: > 100 µM (inactive)
[11]
  GI50: > 100 µM (inactive)
[12]
  GI50: > 100 µM (inactive)
[13]
  GI50: > 100 µM
[14]
  GI50: 89.7 µM (inactive)
[15]
  GI50: > 100 µM (inactive)
[57]
  GI50: > 100 µM (inactive)
[16]
  GI50: > 100 µM (inactive)
[17]
  GI50: > 100 µM (inactive)
[18]
  GI50: > 100 µM (inactive)
[19]
  GI50: > 100 µM (inactive)
[20]
  GI50: > 100 µM (inactive)
[21]
  GI50: > 100 µM (inactive)
[22]
  GI50: > 100 µM (inactive)
[23]
  GI50: > 100 µM (inactive)
[24]
  GI50: > 100 µM (inactive)
[58]
  GI50: > 100 µM (inactive)
[25]
  GI50: > 100 µM (inactive)
[26]
  GI50: > 100 µM (inactive)
[27]
  GI50: > 100 µM (inactive)
[28]
  GI50: > 100 µM (inactive)
[29]
  GI50: > 100 µM (inactive)
[30]
  GI50: > 100 µM (inactive)
[55]
  GI50: > 100 µM (inactive)
[31]
  GI50: > 100 µM (inactive)
[32]
  GI50: > 100 µM (inactive)
[33]
  GI50: > 100 µM (inactive)
[34]
  GI50: > 100 µM (inactive)
[35]
  GI50: > 100 µM (inactive)
[37]
  GI50: > 100 µM (inactive)
[38]
  GI50: > 100 µM (inactive)
[39]
  GI50: > 100 µM (inactive)
[40]
  GI50: > 100 µM (inactive)
[41]
  GI50: > 100 µM (inactive)
[56]
  GI50: > 100 µM (inactive)
[42]
  GI50: > 100 µM (inactive)
[43]
  GI50: > 100 µM (inactive)
[44]
  GI50: > 100 µM (inactive)
[45]
  GI50: > 100 µM (inactive)
[46]
  GI50: > 100 µM (inactive)
[48]
  GI50: > 100 µM (inactive)
[49]
  GI50: > 100 µM (inactive)
[50]
  GI50: > 100 µM (inactive)
[51]
  GI50: > 100 µM (inactive)
[52]
  GI50: > 100 µM (inactive)
[53]
  GI50: > 100 µM (inactive)
[54]
  GI50: > 100 µM (inactive)
